Target: T1, Kv1.5 (Homo sapiens, UniProt P22460)
T1 construct: expressed in transfected cells; host or cells: HEK or LTK- cells
Test: Kv1.5 Patch Clamp EP (whole cell patch clamp; single point at 1 μM and IC50)
Type: cell-based
Conditions: single point at 1.0 μM, Kv1.5 stably over expressed in HEK or LTK- cells
Procedure: The external solution is standard Tyrodes solution. […] Inhibition was measured at the end of the 1 second pulses and expressed relative to controls. Initial Kv1.5 inhibition is estimated by single point determinations done at 1 μM.

T1 sequence (P22460 whole entry): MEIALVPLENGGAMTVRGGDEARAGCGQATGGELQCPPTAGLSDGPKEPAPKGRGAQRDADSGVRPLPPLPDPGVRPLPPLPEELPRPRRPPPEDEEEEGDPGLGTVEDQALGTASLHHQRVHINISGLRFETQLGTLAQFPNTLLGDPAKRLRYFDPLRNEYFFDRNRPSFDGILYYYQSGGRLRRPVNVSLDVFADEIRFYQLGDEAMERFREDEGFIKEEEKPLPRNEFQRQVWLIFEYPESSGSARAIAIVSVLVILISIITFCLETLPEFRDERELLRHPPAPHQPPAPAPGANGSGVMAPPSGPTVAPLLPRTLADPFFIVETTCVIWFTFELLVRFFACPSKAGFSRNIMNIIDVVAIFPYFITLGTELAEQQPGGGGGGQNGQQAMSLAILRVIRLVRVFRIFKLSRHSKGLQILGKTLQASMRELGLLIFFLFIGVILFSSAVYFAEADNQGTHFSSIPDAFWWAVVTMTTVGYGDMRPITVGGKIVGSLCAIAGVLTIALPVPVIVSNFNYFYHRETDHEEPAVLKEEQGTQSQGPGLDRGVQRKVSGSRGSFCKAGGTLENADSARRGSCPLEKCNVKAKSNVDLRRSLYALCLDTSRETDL

Compound | inhibition at 1 µM [%]
COc1ccc(CCN2C(=O)C3(CCNCC3)N(C)C2c2ccc(C3CC3)cc2)cc1 (stereo not shown) [Compound 1, 2-(4-Cyclopropylphenyl)-3-[2-(4-methoxyphenyl)ethyl]-1-methyl-1,3,8-triaza-spiro[4.5]decan-4-one] | 2
COc1ccc(CCN2C(=O)C3(CCNCC3)N(C)C2c2ccc(C(C)(C)C)cc2)cc1 (stereo not shown) [Compound 2, 2-(4-tert-Butylphenyl)-3-[2-(4-methoxyphenyl)ethyl]-1-methyl-1,3,8-triaza-spiro[4.5]decan-4-one] | 6
COc1ccc(CCN2C(=O)C3(CCNCC3)N(C)C2c2ccc(OC(F)F)cc2)cc1 (stereo not shown) [Compound 3, 2-(4-Difluoromethoxyphenyl)-3-[2-(4-methoxyphenyl)ethyl]-1-methyl-1,3,8-triaza-spiro[4.5]decan-4-one] | 6
COc1ccc(CCN2C(=O)C3(CCN(C(=O)NC(C)C)CC3)N(C)C2c2ccc(OC)cc2)cc1 (stereo not shown) [Compound 17, 2-(4-Methoxyphenyl)-3-[2-(4-methoxyphenyl)ethyl]-1-methyl-4-oxo-1,3,8-triaza-spiro[4.5]decane-8-carboxylic acid isopropylamide] | 31
COc1ccc(CCN2C(=O)C3(CCN(C(=O)N(C)C)CC3)N(C)C2c2ccc(C3CC3)cc2)cc1 (stereo not shown) [Compound 18, 2-(4-Cyclopropylphenyl)-3-[2-(4-methoxyphenyl)ethyl]-1-methyl-4-oxo-1,3,8-triaza-spiro[4.5]decane-8-carboxylic acid dimethylamide] | 10
COc1ccc(CCN2C(=O)C3(CCN(C(=O)OC(C)(C)C)CC3)N(C)C2c2ccc(C(C)(C)C)cc2)cc1 (stereo not shown) [Compound 38, tert-Butyl 2-(4-tert-butylphenyl)-3-[2-(4-methoxyphenyl)ethyl]-1-methyl-4-oxo-1,3,8-triazaspiro[4.5]decane-8-carboxylate] | 28
COc1ccc(CCN2C(=O)C3(CCN(C(=O)OC(C)(C)C)CC3)N(C)C2c2ccc(OC(F)F)cc2)cc1 (stereo not shown) [Compound 40, tert-Butyl 2-(4-difluoromethoxyphenyl)-3-[2-(4-methoxyphenyl)ethyl]-1-methyl-4-oxo-1,3,8-triazaspiro[4.5]decane-8-carboxylate] | 22
COC(=O)N1CCC2(CC1)C(=O)N(CCc1ccc(OC)cc1)C(c1ccc(C3CC3)cc1)N2C (stereo not shown) [Compound 41, Methyl 2-(4-cyclopropylphenyl)-3-[2-(4-methoxyphenyl)ethyl]-1-methyl-4-oxo-1,3,8-triazaspiro[4.5]decane-8-carboxylate] | 17
CN1C(c2ccc(C3CC3)cc2)N(CCCc2ccccc2)C(=O)C12CCNCC2 (stereo not shown) [Compound 43, 2-(4-Cyclopropylphenyl)-1-methyl-3-(3-phenylpropyl) —1,3,8-triazaspiro[4.5]-decan-4-one] | 23
COc1ccc(CCN2C(=O)C3(CCN(CC4CC4)CC3)N(C)C2c2ccc(C3CC3)cc2)cc1 (stereo not shown) [Compound 56, 8-Cyclopropylmethyl-2-(4-cyclopropylphenyl)-3-[2-(4-methoxyphenyl)ethyl]-1-methyl-1,3,8-triaza-spiro[4.5]decan-4-one] | 12
COc1ccc(CCN2C(=O)C3(CCN(CC(N)=O)CC3)N(C)C2c2ccc(OC(F)F)cc2)cc1 (stereo not shown) [Compound 57, 2-{2-(4-Difluoromethoxyphenyl)-3-[2-(4-methoxyphenyl)ethyl]-1-methyl-4-oxo-1,3,8-triaza-spiro[4.5]dec-8-yl}acetamide] | 25
COc1ccc(CCN2C(=O)C3(CCN(C(=O)C(C)(C)N)CC3)N(C)C2c2ccc(C3CC3)cc2)cc1 (stereo not shown) [Compound 59, 8-(2-Amino-2-methylpropionyl)-2-(4-cyclopropylphenyl)-3-[2-(4-methoxyphenyl)ethyl]-1-methyl-1,3,8-triaza-spiro[4.5]decan-4-one] | 11
COc1ccc(CCN2C(=O)C3(CCN(C(=O)OC(C)(C)C)CC3)NC2c2ccc(C(C)(C)C)cc2)cc1 (stereo not shown) [Compound 60, 2-(4-tert-Butylphenyl)-3-[2-(4-methoxyphenyl)ethyl]-4-oxo-1,3,8-triaza-spiro[4.5]decane-8-carboxylic acid tert-butyl ester] | 32
COc1ccc(CCN2C(=O)C3(CCN(C(=O)OC(C)(C)C)CC3)NC2c2ccc(C3CC3)cc2)cc1 (stereo not shown) [Compound 64, 2-(4-cyclopropylphenyl)-3-[2-(4-methoxyphenyl)ethyl]-4-oxo-1,3,8-triaza-spiro[4.5]decane-8-carboxylic acid tert-butyl ester] | 36
COc1ccc(CCN2C(=O)C3(CCNCC3)N(C)C2Cc2ccc(C(C)(C)C)cc2)cc1 (stereo not shown) [Compound 69, 2-(4-tert-butylbenzyl)-3-[2-(4-methoxyphenyl)ethyl]-1-methyl-1,3,8-triazaspiro[4.5]decan-4-one] | 5
COc1ccc(CCN2C(=O)C3(CCN(C(=O)C(C)(C)NC(=O)OC(C)(C)C)CC3)N(C)C2c2ccc(C3CC3)cc2)cc1 (stereo not shown) [Compound 70, (2-{2-(4-cyclopropylphenyl)-3-[2-(4-methoxyphenyl)ethyl]-1-methyl-4-oxo-1,3,8-triaza-spiro[4.5]dec-8-yl}-1,1-dimethyl-2-oxo-ethyl)-carbamic acid tert-butyl ester] | 42

Compound | inhibition at 1 µM [%]
COc1ccc(CCN2C(=O)C3(CCN(C(N)=O)CC3)N(C)C2c2ccc(OC)cc2)cc1 (stereo not shown) [Compound 72, 2-(4-methoxyphenyl)-3-[2-(4-methoxyphenyl)ethyl]-1-methyl-4-oxo-1,3,8-triazaspiro[4.5]decane-8-carboxamide] | 16
COc1ccc(CCN2C(=O)C3(CCN(C(=O)OC(C)(C)C)CC3)NC2c2ccc(OC)cc2)cc1 (stereo not shown) [Compound 73, tert-butyl 2-(4-methoxyphenyl)-3-[2-(4-methoxyphenyl)ethyl]-4-oxo-1,3,8-triazaspiro[4.5]decane-8-carboxylate] | 11
COc1ccc(CCN2C(=O)C3(CCN(C(N)=O)CC3)NC2c2ccc(C3CC3)cc2)cc1 (stereo not shown) [Compound 74, 2-(4-cyclopropylphenyl)-3-[2-(4-methoxyphenyl)ethyl]-4-oxo-1,3,8-triazaspiro[4.5]decane-8-carboxamide] | 5
COc1ccc(CCN2C(=O)C3(CCNCC3)NC2c2ccc(C(C)(C)C)cc2)cc1 (stereo not shown) [Compound 76, 2-(4-tert-butylphenyl)-3-[2-(4-methoxyphenyl)ethyl]-1,3,8-triazaspiro[4.5]decan-4-one] | 5
CN1C(c2ccc(C3CC3)cc2)N(CCc2ccc(OC(F)(F)F)cc2)C(=O)C12CCN(C(=O)OC(C)(C)C)CC2 (stereo not shown) [Compound 77, tert-butyl 2-(4-cyclopropylphenyl)-1-methyl-4-oxo-3-{2-[4-(trifluoromethoxy)phenyl]ethyl}-1,3,8-triazaspiro[4.5]decane-8-carboxylate] | 7
CN1C(c2ccc(C3CC3)cc2)N(CCc2ccc(OC(F)(F)F)cc2)C(=O)C12CCNCC2 (stereo not shown) [Compound 78, 2-(4-cyclopropylphenyl)-1-methyl-3-{2-[4-(trifluoromethoxy)phenyl]ethyl}-1,3,8-triazaspiro[4.5]decan-4-one] | 16
COc1ccc(CCN2C(=O)C3(CCN(S(C)(=O)=O)CC3)NC2c2ccc(C3CC3)cc2)cc1 (stereo not shown) [Compound 79, 2-(4-cyclopropylphenyl)-3-[2-(4-methoxyphenyl)ethyl]-8-(methylsulfonyl)-1,3,8-triazaspiro[4.5]decan-4-one] | 8
COc1ccc(CCN2C(=O)C3(CCN(C(=N)N)CC3)N(C)C2c2ccc(C3CC3)cc2)cc1 (stereo not shown) [Compound 84, 2-(4-cyclopropylphenyl)-3-[2-(4-methoxyphenyl)ethyl]-1-methyl-4-oxo-1,3,8-triazaspiro[4.5]decane-8-carboximidamide] | 7
CN=C(N)N1CCC2(CC1)C(=O)N(CCc1ccc(OC)cc1)C(c1ccc(C3CC3)cc1)N2C (stereo not shown) [Compound 86, 2-(4-cyclopropylphenyl)-3-[2-(4-methoxyphenyl)ethyl]-N′,1-dimethyl-4-oxo-1,3,8-triazaspiro[4.5]decane-8-carboximidamide] | 4
COc1ccc(C2NC3(CCN(C(=O)OC(C)(C)C)CC3)C(=O)N2CCCc2ccccc2)cc1 (stereo not shown) [Compound 87, tert-butyl 2-(4-methoxyphenyl)-4-oxo-3-(3-phenylpropyl)-1,3,8-triazaspiro[4.5]decane-8-carboxylate] | 5
COc1ccc(CCN2C(=O)C3(CCN(C(=O)C4CC4)CC3)NC2c2ccc(C(C)(C)C)cc2)cc1 (stereo not shown) [Compound 88, 2-(4-tert-butylphenyl)-8-(cyclopropylcarbonyl)-3-[2-(4-methoxyphenyl)ethyl]-1,3,8-triazaspiro[4.5]decan-4-one] | 13
COc1ccc(CCN2C(=O)C3(CCN(C(=O)[C@H]4CCCN4)CC3)N(C)C2c2ccc(C3CC3)cc2)cc1 (stereo partly drawn) [Compound 90, 2-(4-cyclopropylphenyl)-3-[2-(4-methoxyphenyl)ethyl]-1-methyl-8-D-prolyl-1,3,8-triazaspiro[4.5]decan-4-one] | 8
COc1ccc(CCN2C(=O)C3(CCNCC3)NC2c2ccc(C3CC3)cc2)cc1 (stereo not shown) [Compound 93, 2-(4-cyclopropylphenyl)-3-[2-(4-methoxyphenyl)ethyl]-1,3,8-triazaspiro[4.5]decan-4-one] | 21
CCS(=O)(=O)N1CCC2(CC1)NC(c1ccc(C(C)(C)C)cc1)N(CCc1ccc(OC)cc1)C2=O (stereo not shown) [Compound 94, 2-(4-tert-butylphenyl)-8-(ethylsulfonyl)-3-[2-(4-methoxyphenyl)ethyl]-1,3,8-triazaspiro[4.5]decan-4-one] | 12
COc1ccc(CCN2C(=O)C3(CCN(C(=O)OC(C)(C)C)CC3)N(C)C2Cc2ccc(C(C)(C)C)cc2)cc1 (stereo not shown) [Compound 97, tert-butyl 2-(4-tert-butylbenzyl)-3-[2-(4-methoxyphenyl)ethyl]-1-methyl-4-oxo-1,3,8-triazaspiro[4.5]decane-8-carboxylate] | 16

Source: US20070299072A1, “KV1.5 POTASSIUM CHANNEL INHIBITORS” (Wyeth, priority 2006, published 2007)
